# Experimental data taken from EP3360550A1, “MOLECULES AND PHARMACEUTICAL COMPOSITIONS, IN PARTICULAR FOR TREATING A GENETIC BLOOD DISORDER” (Université de La Réunion, priority 2017, dated 2018).
# Columns and labels:
# [1] = test system: RBCs; test: Control of hemolysis (RBC count with CASY Cell Counter and Analyzer); type: cell-based; details: for RBCs/ml (x10^6): RBCs at 6x10^6 cells/ml incubated with molecule at 0.1 mM for 30 min at room temperature; for decrease of RBC concentration compared to vehicle (DMSO) alone: 0.1 mM, 30 min at room temperature
# Experimental: At the end of the 30 min of incubation with the molecules, the number of RBC for the control of hemolysis was measure by using CASY® Cell Counter and Analyzer.
# For hemolysis assays, RBCs were suspended at 6x10^6 cells/ml in the Hanks/0.4% BSA buffer and the concentration measured accurately using the CASY® Cell Counter and Analyzer. RBCs were then incubated or not with solutions comprising either Molecule 1, Molecule 2 or Molecule 3 at 0.1 mM or DMSO, for 30 min at room temperature. After this incubation time cell concentration was measured again using CASY® Cell Counter and Analyzer (Table 1). If hemolysis occurs during this incubation time it will be reflected by a decrease in the RBC concentration.
# [2] = test system: laminin 521; test: Red blood cell adhesion to laminin 521 under flow conditions; type: cell-based, human; details: for RBC adhesion to laminin: RBCs from sickle cell disease patients incubated with molecule at 0.1 mM for 30 min at room temperature, 3 blood samples, Figure 1; for inhibition of RBC adhesion to laminin (dose effect): increasing concentrations 50, 100 and 200 µM, same conditions as in Example 1, Figure 2
# Experimental: Red blood cell adhesion to laminin 521 was measured under flow conditions using Vena8 Endothelial+™ biochips (internal channel dimensions: length 20 mm, width 0.8 mm, height 0.12 mm) and ExiGo™ Nanopumps (Cellix Ltd, Dublin, Ireland). Three different solutions were prepared with either Molecule 1, Molecule 2 or Molecule 3 (0.1 mM) by solubilizing Molecule 1, 2 or 3 using DMSO. Recombinant human laminin 521 (BioLamina) at 5 ng/µl was immobilized on the internal surface of the biochips at 4°C overnight. RBCs from sickle cell disease patients were suspended at 5x10^7 cells/ml in Hanks balanced salt solution, without calcium chloride and magnesium sulfate (Sigma-Aldrich) supplemented with 0.4% BSA, and incubated with the solution comprising either Molecule 1, Molecule 2 or Molecule 3 at 0.1 mM or DMSO for 30 min at room temperature (20°C) and perfused through the biochip channels for 10 min at a shear stress of 0.5 dyn/cm^2 followed by a washout at the same shear stress with the buffer alone for 30 min. Five minutes washouts with the Hanks/0.4% BSA buffer were performed at 1, 2, 3, 4 and 5 dyn/cm^2. After each wash, adherent RBCs were counted in 7 representative areas along the centerline of each channel using the AxioObserver Z1 microscope and ZEN analysis software (Carl Zeiss, Le Pecq, France) and the mean number of adherent RBCs was determined for each condition and each washout step (Figure 1). Images of the same 7 areas were obtained throughout each experiment. Three adhesion assays were performed with 3 different blood samples. RBC adhesion to laminin was inhibited when the RBC suspension was incubated with Molecule 2 or 3, but not Molecule 1.
# To address the dose effect of the molecules, adhesion assays were performed in the same conditions as in Example 1, using the following concentrations for Molecule 1, 2 or 3: • 50, 100 and 200 µM.
Structure (SMILES),RBCs/ml (x10^6) [1],RBC adhesion to laminin [2],inhibition of RBC adhesion to laminin (dose effect) [2],decrease of RBC concentration compared to vehicle (DMSO) alone [1]
Cc1c(CC(=O)NC(C(=O)O)c2ccccc2)c(=O)oc2c(C)c3oc4c(c3cc12)CCCC4 (stereo not drawn) [Molecule 2],5.55 RBCs/ml (x10^6),inhibited,increasing inhibition,–
CCC(=O)N1CCc2ccc(OCc3nc(C(=O)NCc4ccccc4)co3)cc2C1c1ccc(C)cc1 (stereo not drawn) [Molecule 1],6.04 RBCs/ml (x10^6),–,–,no decrease
O=S(=O)(O)CCCn1c(=NN=Cc2c(O)ccc3ccccc23)sc2ccccc21 [Molecule 3],6.02 RBCs/ml (x10^6),inhibited,increasing inhibition,no decrease
